# Assay: logP determination by HPLC on a reversed-phase column (C 18), EEC Directive 79/831 Annex V.A8
# Format: physicochemical
# Conditions: method marked [a] in Table 1
# Experimental: The stated logP values were determined in accordance with EEC Directive 79/831 Annex V.A8 by HPLC (high performance liquid chromatography) on a reversed-phase column (C 18). Temperature: 43° C.
row,logP,SMILES
1,5.95^[a],CCc1cc(CC)nc(C(C)=NOCC(C)CON=C(C)c2cc(CC)cc(CC)n2)c1 (stereo not shown) [compound 574]

# Same assay, conditions: method marked [b] in Table 1
row,logP,SMILES
1,5.84^[b],CC(=NOCc1ccc(CON=C(C)c2nc(C)c(C)s2)cc1)c1nc(C)c(C)s1 [compound 736]
2,1.97^[b],C(=NOCCCON=Cc1ccccn1)c1ccccn1 [compound 666]
3,4.26^[b],CC(=NOCc1ccccc1CON=C(C)c1cccc(C)n1)c1cccc(C)n1 [compound 703]
4,2.91^[b],"CC(=NOCC(CON=C(C)c1nc(C)ccc1C)c1ccccc1)c1nc(C)ccc1C (single isomer, unassigned) [compound 754]"
5,3.87^[b],CC(=NOCC1(CON=C(C)c2cc(C)cc(C)n2)CCCCC1)c1cc(C)cc(C)n1 [Compound 553]
6,4.27^[b],CC(=NOCc1ccc(CON=C(C)c2cccc(C)n2)cc1)c1cccc(C)n1 [compound 705]
7,4.68^[b] (isomer B),"CCCC(=NOCC(C)CON=C(C)c1cccc(C)n1)c1ncccc1C (single isomer, unassigned) [compound 549]"
8,5.71^[b],CC(=NOCc1cccc(CON=C(C)c2nc(C)c(C)s2)c1)c1nc(C)c(C)s1 [compound 732]
9,5.09^[b],"CC(=NOCC(CON=C(C)c1nc(C)ccc1C)C(C)(C)C)c1nc(C)ccc1C (single isomer, unassigned) [compound 757]"
10,3.58^[b] (isomer B),"C=C(CON=C(C)c1cccc(C)n1)CON=C(C)c1sc(C)nc1C (single isomer, unassigned) [compound 545]"
11,3.85^[b] (isomer A),"CCCC(=NOCC(C)CON=C(C)c1cccc(C)n1)c1ncccc1C (single isomer, unassigned) [compound 548]"
12,4.67^[b],CCC(=NOCC1(CON=C(CC)c2cccc(C)n2)CC(C(C)C)=NO1)c1cccc(C)n1 (stereo not shown) [compound 606]
13,2.18^[b],Cc1cccc(C=NOCC=CCON=Cc2cccc(C)n2)n1 [compound 737]
14,3.19^[b],CC(=NOCC1(CON=C(C)c2cc(C)cc(C)n2)CC(c2ccccc2Cl)=NO1)c1cc(C)cc(C)n1 (stereo not shown) [compound 645]
15,2.18^[b],CC(=NOCC1(CON=C(C)c2cc(C)cc(C)n2)CC(C(C)C)=NO1)c1cc(C)cc(C)n1 (stereo not shown) [compound 638]
16,2.89^[b],"CC(=NOCC(CON=C(C)c1nc(C)ccc1C)C(C)C)c1nc(C)ccc1C (single isomer, unassigned) [compound 752]"
17,2.53^[b],CC(=NOCCCON=C(C)c1ccc(C)c(C)n1)c1cccc(C)n1 [Compound 699]
18,3.76^[b],N/C(=N\OCc1ccc(CO/N=C(\N)c2nc(C3CC3)cc(C3CC3)n2)cc1)c1nc(C2CC2)cc(C2CC2)n1 [compound 720]
19,3.12^[b],CC(=NOCC#CCON=C(C)c1cccc(C)n1)c1cccc(C)n1 [Compound 706]
20,2.71^[b],Cc1cccc(C(N)=NOCC(C)CON=C(N)c2cccc(C)n2)n1 (stereo not shown) [compound 689]
21,2.11^[b],CC(=NOCC1(CON=C(C)c2cc(C)cc(C)n2)CC1)c1cc(C)cc(C)n1 [Compound 556]

# Same assay, conditions: method marked [c] in Table 1
row,logP,SMILES
1,4.59^[c],"CC(=NOCC(CON=C(C)c1nc(C)ccc1C)c1ccccc1)c1nc(C)ccc1C (single isomer, unassigned) [compound 754]"
2,7.36^[c],CC(=NOCC1(CON=C(C)c2cc(C)cc(C)n2)CCCCC1)c1cc(C)cc(C)n1 [Compound 553]
3,6.38^[c],"CC(=NOCC(CON=C(C)c1nc(C)ccc1C)C(C)(C)C)c1nc(C)ccc1C (single isomer, unassigned) [compound 757]"
4,4.96^[c],CC(=NOCc1cccc(CON=C(C)c2cc(C)cc(C)n2)n1)c1cc(C)cc(C)n1 [compound 742]
5,4.85^[c],"CC(=NOCC(CON=C(C)c1nc(C)ccc1C)C(C)C)c1nc(C)ccc1C (single isomer, unassigned) [compound 752]"
6,5.33^[c],CC(=NOCCCON=C(C)c1ccc(C)c(C)n1)c1cccc(C)n1 [Compound 699]
7,5.97^[c],CC(=NOCC1(CON=C(C)c2cc(C)cc(C)n2)CC1)c1cc(C)cc(C)n1 [Compound 556]

# Same assay, conditions: method marker [a] (footnote not shown); isomer A / isomer B / isomer mixture as noted in the cell
row,logP,SMILES
1,5.88^[a],CC(=NOCC(C)CON=C(C)c1cc(C(C)(C)C)ccn1)c1cc(C(C)(C)C)ccn1 (stereo not shown) [compound 104]
2,1.27^[a],CC(=NOCCCON=C(C)c1ccc(C)nc1)c1ccc(C)nc1 [compound 228]
3,4.02^[a],CC(=NOCC(C)CON=C(C)c1sc(C)nc1C)c1sc(C)nc1C (mixture of isomers) [compound 121]
4,6.78^[a],CCCc1cccc(C(C)=NOCCCON=C(C)c2cccc(CCC)n2)n1 [Compound 174]
5,5.74^[a],CC(=NOCCCON=C(C)c1cc(-c2ccccc2)ccn1)c1cc(-c2ccccc2)ccn1 [compound 132]

# Same assay, conditions: method marker [b]; isomer A / isomer B / isomer mixture as noted in the cell
row,logP,SMILES
1,2.82^[b],C=C(CON=C(C)c1ccc(C)c(C)n1)CON=C(C)c1ccc(C)c(C)n1 [Compound 67]
2,4.37^[b],C=C(CON=C(C)c1cccc(C)n1)CON=C(N)c1cc(C(F)(F)F)cc(C)n1 [compound 210]
3,4.23^[b],C=C(CON=C(C)c1cccc(C)n1)CON=C(C)c1cccs1 [compound 196]
4,3.36^[b],C=C(CON=C(C)c1ccc(C)cn1)CON=C(C)c1ccc(C)cn1 [compound 152]
5,4.74^[b],CC(=NOCC(C)(C)CON=C(C)c1cccc(C)n1)c1cccc(C)n1 (mixture of isomers) [Compound 250]
6,3.33^[b],C=C(CON=C(C)c1cccc(C)n1)CON=C(C)c1cccc(C)n1 [Compound 9]
7,2.90^[b],C=C(CON=C(C)c1ncccc1C)CON=C(C)c1ncccc1C [compound 65]
8,3.99^[b],C=C(CON=C(C)c1cccc(C)n1)CON=C(N)c1nc(C)c(C(C)CC)c(C2CC2)n1 (stereo not shown) [Compound 244]
9,4.38^[b],CC(=NOCCC(C)CCON=C(C)c1cccc(C)n1)c1cccc(C)n1 (stereo not shown) [Compound 75]
10,1.23^b],CC(=NOCCCON=C(C)c1ccncc1)c1ccncc1 [compound 29]
11,5.15^[b],C=C(CON=C(C)c1ccc(C(F)(F)F)cn1)CON=C(C)c1cccc(C)n1 [Compound 66]
12,"3,57^[b]",C=C(CON=C(C)c1c(C)noc1C)CON=C(C)c1c(C)noc1C [compound 25]
13,5.46^[b],C=C(CON=C(C)c1cc(C(=O)OC)cc(C)n1)CON=C(C)c1cc(C(=O)OC)cc(C)n1 [compound 178]

# Same assay, conditions: reversed-phase HPLC column (C 18); HCO2H; HPLC reversed-phase column (C 18), 43° C.; read-out: logP (HCO2H)
row,chromatographic logP,SMILES
1,1.81,"Cc1cc(C)nc(/C(N)=N/OCC(C)CO/N=C(\N)c2nc(C)cc(C)n2)n1 (stereo not shown) [drawing 85, N′,N″-[(2-methylpropane-1,3-diyl)bis(oxy)]bis(4,6-dimethylpyrimidine-2-carboximidamide)]"

# Same assay, conditions: value marked [a]
row,logP,SMILES
1,4.03^[a],Cc1cccc(C(=NOCCON=C(c2cccc(C)n2)C(C)C)C(C)C)n1 (mixture of isomers) [compound 288]
2,5.03^[a],CCOC(=O)c1cccc(C(C)=NOCC(C)CON=C(C)c2cccc(C(=O)OCC)n2)n1 (stereo not shown) [compound 258]
3,1.31^[a],COc1cc(C)nc(C(C)=NOCC(C)CON=C(C)c2cc(OC)cc(C)n2)c1 (stereo not shown) [Compound 806]
4,5.9^[a],CC(=NOCC1CCCCC1ON=C(C)c1cccc(C)n1)c1cccc(C)n1 (stereo not shown) [Compound 823]
5,2.55^[a],CC(=NOC(=O)NCCCC(C)CNC(=O)ON=C(C)c1ccc(C)c(C)n1)c1ccc(C)c(C)n1 (stereo not shown) [compound 861]
6,4.90^[a] (isomer A),"C=C(CON=C(c1cccc(C)n1)C(C)C)CON=C(c1cccc(C)n1)C(C)C (single isomer, unassigned) [compound 275]"
7,1.84^[a],CC(=NOCCCON=C(C)c1nc(C)c(C)cc1C)c1nc(C)c(C)cc1C [compound 256]
8,7.36^[a],CC(=NOC1CCC(ON=C(C)c2cccc(C3CC3)n2)C1)c1cccc(C2CC2)n1 (mixture of isomers) [compound 813]

# Same assay, conditions: value marked [b]
row,logP,SMILES
1,4.85^[b],CC(=NOCCCCON=C(C)c1ccccc1Cl)c1cccc(C)n1 [compound 379]
2,2.42^[b],CC(=NOC[C@@H]1O[C@@H]1CON=C(C)c1cccc(C)n1)c1cccc(C)n1 [compound 287]
3,5.36^[b],CC(=NOCC(C)CON=C(C)c1cccc2ccccc12)c1cccc(C)n1 (stereo not shown) [compound 437]
4,3.33^[b],CC(=NOCC(C)(C)CON=C(C)c1cc(C)cc(C)n1)c1cccc(C)n1 [Compound 487]
5,4.25^[b],CC(=NOCCCCCCON=C(C)c1ncccc1C)c1cccc(C)n1 [compound 464]
6,1.70^[b],CC(=NOCC1(CON=C(C)c2nc(C)ccc2C)COC(=O)N1)c1nc(C)ccc1C (stereo not shown) [compound 859]
7,3.85^[b],COc1ccc(C(C)=NOCCCCON=C(C)c2cccc(C)n2)cc1OC [compound 380]
8,4.15^[b],COc1cc(C)nc(C(C)=NOCCCCCCON=C(C)c2cccc(C)n2)c1 [compound 462]
9,2.76^[b],CC(=NOCC(C)CON=C(C)c1cc(C)cc(C)n1)c1cccc(C)n1 (stereo not shown) [Compound 499]
10,6.51^[b],CC(=NOCCCCCCON=C(C)c1cccc(C)n1)c1cccc(C(F)(F)F)c1 [compound 387]
11,5.46^[b] (isomer A),"CC(=NOCCCCON=C(CC(C)C)c1cccc(C)n1)c1cccc(C)n1 (single isomer, unassigned) [compound 331]"
12,5.31^[b],CCCC(=NOCC(C)CON=C(C)c1cccc(C)n1)c1cccc(C)n1 (stereo not shown) [Compound 427]
13,5.90^[b],CC(=NOCC(C)(C)CON=C(C)c1cccc2ccccc12)c1cccc(C)n1 [compound 417]
14,2.41^[b],CC(=NOCC(C)(C)CON=C(C)c1cccc(C)n1)c1ccc(C)nc1 [Compound 416]
15,4.91^[b] (isomer B),"C=C(CON=C(C)c1cccc(C)n1)CON=C(C)c1ccc(Cl)s1 (single isomer, unassigned) [compound 473]"
16,4.74^[b],CC(=NOCCCCON=C(C)c1cc2ccccc2o1)c1cccc(C)n1 [compound 381]
17,4.49^[b],COc1cc(OC)nc(C(C)=NOCC(C)CON=C(C)c2nc(OC)cc(OC)n2)n1 (stereo not shown) [Compound 272]
18,1.62^[b],Cc1cc(C)nc(C(N)=NOC/C=C/CON=C(N)c2nc(C)cc(C)n2)n1 [Compound 772]
19,3.77^[b],"CC(=NOCC1(CON=C(C)c2nc(C)ccc2C)CCC1)c1nc(C)ccc1C (single isomer, unassigned) [compound 761]"
20,1.69^[b],CC(=NOCC(C)CON=C(C)c1cccc(C)[n+]1[O-])c1cccc(C)[n+]1[O-] (stereo not shown) [compound 314]

# Same assay, conditions: value marked [c]
row,logP,SMILES
1,5.25^[c],COc1cc(C)nc(C(C)=NOCC(C)CON=C(C)c2cc(OC)cc(C)n2)c1 (stereo not shown) [Compound 806]
2,2.81^[c],CC(=NOCC1(CON=C(C)c2nc(C)ccc2C)COC(=O)N1)c1nc(C)ccc1C (stereo not shown) [compound 859]
3,5.84^[c],"CC(=NOCC1(CON=C(C)c2nc(C)ccc2C)CCC1)c1nc(C)ccc1C (single isomer, unassigned) [compound 761]"

# From US20100022559A1, “BISOXIMES AS FUNGICIDES” (BAYER CROPSCIENCE AG, priority 2006, published 2010)
